Data published in paper PMC3731256, “Optimization of Substituted 6-Salicyl-4-Anilinoquinazoline Derivatives as Dual EGFR/HER2 Tyrosine Kinase Inhibitors” (PLoS ONE, 2013).

What was measured:
[1] = tested on: MCF-7 cells; assay: Antiproliferation WST-1 assay, MCF-7; assay type: cell-based, human; conditions: Homo sapiens, MCF7, WST-1 assay; MCF-7 breast cancer, Her2/neu overexpression; read-out: Cellular IC50, MCF-7
Experimental: (§1) WST-1 is better than MTT for analyzing cell proliferation, because it can be reduced to soluble formazan by dehydrogenase in mitochondria and has little toxicity to cells. Cell proliferation was determined using WST-1 dye (Beyotime Inst Biotech, China) according to manufacture’s instructions. Brieﬂy, 5 × 10^3 cells per well were seeded in a 96-well plate, grown at 37 ℃ for 24 h, and then placed in serum-starved conditions for a further 6 h. Subsequently, cells were treated with compounds (Table 1) at increasing concentrations in the presence of 10% FBS for 24 or 48h. After 10 µL WST-1 dye was added to each well, cells were incubated at 37 ℃ for 2 h and the absorbance was ﬁnally determined at 450 nm using a microplate reader.

[2] = tested on: A431 cells; assay: Antiproliferation WST-1 assay, A431; assay type: cell-based, human; conditions: Homo sapiens, A-431, WST-1 assay; A431, overexpression of EGFR; read-out: Cellular IC50, A431
Experimental: as §1

[3] = tested on: MDA-MB-453 cells; assay: Antiproliferation WST-1 assay, MDA-MB-453; assay type: cell-based; conditions: Homo sapiens, breast cancer, HER-2++, PTEN deficiency
Experimental: as §1

[4] = tested on: H1781 cells; assay: Antiproliferation WST-1 assay, H1781; assay type: cell-based; conditions: NCI-H1781, NSCLC, HER-2 G776ins V_G/C, lapatinib-resistant
Experimental: as §1

[5] = target: T1, VEGFR2 (Homo sapiens, UniProt P35968); assay: Tyrosine kinase profiling (Alphascreen), VEGFR2; assay type: biochemical; conditions: ATP concentration = Km
T1 construct: The cytoplasmic domain of vascular endothelial growth factor receptor 2 (VEGFR2); purchased Millipore Corp
Experimental: (§2) The cytoplasmic domain of vascular endothelial growth factor receptor 2 (VEGFR2), platelet-derived growth factor receptor α (PDGFRα), cSRC were purchased from Millipore Corp. Assays for 3 tyrosine kinases were performed in 384 well plates using the Alphascreen® system (PerkinElmer) at room temperature. Enzyme reactions were performed in 50 mM Tris–HCl, pH7.5, 5 mM MnCl2, 5 mM MgCl2, 0.01% Tween-20, 2 mM dithiothreitol and 0.1 μg/ml biotinylated poly-GluTyr (4:1) containing optimized concentration of enzyme and ATP as described below.
(§3) Prior to the kinase reaction, compound and enzyme were incubated for 5 min at room temperature. The reactions were initiated by adding ATP. After the reaction period as described below at room temperature, the reactions were stopped by the addition of 25 μl of 100 mM EDTA, 10 μg/ml Alphascreen streptavidin donor beads and 10 μg/ml acceptor beads described below in 62.5 mM HEPES, pH 7.4, 250 mM NaCl, and 0.1% BSA. Plates were incubated in the dark for more than 12 h and then read by EnVision 2102 Multilabel Reader (PerkinElmer). The well containing substrate and enzyme without compound was used as total reaction control. […]

[6] = target: T2, cSRC (Homo sapiens, UniProt P12931); assay: Tyrosine kinase profiling (Alphascreen), cSRC; assay type: biochemical; conditions: ATP concentration = Km
T2 construct: purchased Millipore Corp
Experimental: as §2, §3

[7] = target: T3, CDK2/CycA (Homo sapiens, UniProt P24941); assay: Serine/threonine kinase profiling ([γ-32P] ATP), CDK2; assay type: biochemical
T3 construct: 6His (C); made in house; host or cells: baculovirus expression system
Experimental: (§4) Assays for 4 serine/threonine kinases using radio labeled [γ-^32P] ATP (GE Healthcare, Piscataway, NJ) were performed in 96 well plates. Mitogen-activated protein kinase p38α (p38α), was expressed as N-terminal FLAG-tagged protein using a baculovirus expression system. Aurora-A and -B were expressed as N-terminal 6xHis tagged protein using a baculovirus expression system. CDK2/CycA was expressed as C-terminal 6His-tagged CDK2, and N-terminal GST-tagged Cyclin A protein using a baculovirus expression system.
(§5) The reaction conditions were optimized for each kinase: p38α (100 ng/well of enzyme, 1 μg/well of MBP (Wako Pure Chemical Ind., Osaka, Japan), 0.1 μCi/well of [γ-^32P] ATP, 60 min reaction at 30 ℃); Aurora-A and -B (50 ng/well of enzyme, 30 μM of Aurora substrate peptide, 0.2 μCi/well of [γ-^32P] ATP, 60 min reaction at room temperature); CDK2/CycA (1.8 mUnits/well of enzyme, 1 μg/well of Histone H1 (Calbiochem), 0.2 μCi/well of [γ-^32P] ATP, 20 min reaction at room temperature).
(§6) All the four enzyme reactions were performed in 25 mM HEPES, pH 7.5, 10 mM magnesium acetate, 1 mM dithiothreitol and 0.5 μM ATP containing optimized concentration of enzyme, substrate and radiolabeled ATP as described above in a total volume of 50 μl. […] The radioactivity was counted by a TopCount scintillation counter (PerkinElmer).

[8] = target: T4, p38α (Homo sapiens, UniProt Q16539); assay: Serine/threonine kinase profiling ([γ-32P] ATP), p38α; assay type: biochemical
T4 construct: FLAG (N); made in house; host or cells: baculovirus expression system
Experimental: as §4, §5, §6

[9] = target: T5, Aurora B (Homo sapiens, UniProt Q96GD4); assay: Serine/threonine kinase profiling ([γ-32P] ATP), Aurora B; assay type: biochemical; conditions: ATP concentration = Km
T5 construct: 6xHis (N); made in house; host or cells: baculovirus expression system
Experimental: as §4, §5, §6

[10] = tested on: several key kinases close to EGFR/HER2; assay: Kinase selectivity profile; assay type: biochemical; conditions: versus EGFR/HER2
Experimental: as §4, §2

[11] = converted from IC50 by online calculator

T4 sequence (Q16539 whole entry): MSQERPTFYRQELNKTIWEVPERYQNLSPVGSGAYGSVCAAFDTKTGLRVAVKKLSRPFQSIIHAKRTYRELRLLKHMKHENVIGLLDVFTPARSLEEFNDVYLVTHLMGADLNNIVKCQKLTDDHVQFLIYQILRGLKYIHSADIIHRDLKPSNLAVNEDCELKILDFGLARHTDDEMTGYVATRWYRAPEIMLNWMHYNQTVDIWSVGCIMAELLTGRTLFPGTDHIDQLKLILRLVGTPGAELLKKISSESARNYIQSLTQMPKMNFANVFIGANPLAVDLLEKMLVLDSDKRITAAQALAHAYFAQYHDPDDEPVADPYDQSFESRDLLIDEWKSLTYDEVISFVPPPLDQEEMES
T2 sequence (P12931 whole entry, species assumed): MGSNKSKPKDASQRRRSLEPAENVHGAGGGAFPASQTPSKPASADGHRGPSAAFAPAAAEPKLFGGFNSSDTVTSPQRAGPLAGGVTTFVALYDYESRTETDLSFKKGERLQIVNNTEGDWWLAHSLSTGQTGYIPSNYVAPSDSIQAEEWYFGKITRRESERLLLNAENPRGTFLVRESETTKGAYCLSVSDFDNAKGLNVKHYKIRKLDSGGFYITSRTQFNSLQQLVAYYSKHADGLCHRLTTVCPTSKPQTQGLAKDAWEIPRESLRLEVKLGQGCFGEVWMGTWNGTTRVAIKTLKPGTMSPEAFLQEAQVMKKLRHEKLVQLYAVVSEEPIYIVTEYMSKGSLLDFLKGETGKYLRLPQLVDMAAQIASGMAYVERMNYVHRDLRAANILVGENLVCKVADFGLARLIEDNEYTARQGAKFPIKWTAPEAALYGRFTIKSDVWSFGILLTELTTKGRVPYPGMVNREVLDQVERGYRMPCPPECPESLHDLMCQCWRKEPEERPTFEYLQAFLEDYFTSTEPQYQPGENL
T5 sequence (Q96GD4 whole entry): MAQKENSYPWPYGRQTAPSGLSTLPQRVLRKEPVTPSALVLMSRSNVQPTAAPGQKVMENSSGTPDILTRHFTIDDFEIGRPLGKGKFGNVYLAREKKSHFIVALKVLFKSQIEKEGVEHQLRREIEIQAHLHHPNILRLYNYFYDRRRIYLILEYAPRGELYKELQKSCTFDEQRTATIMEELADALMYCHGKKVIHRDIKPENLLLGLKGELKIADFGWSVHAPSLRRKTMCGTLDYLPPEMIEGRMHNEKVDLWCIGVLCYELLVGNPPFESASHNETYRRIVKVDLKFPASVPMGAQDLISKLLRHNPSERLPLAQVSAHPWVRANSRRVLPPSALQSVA
T1 sequence (P35968 786-1356 limits assumed, species assumed): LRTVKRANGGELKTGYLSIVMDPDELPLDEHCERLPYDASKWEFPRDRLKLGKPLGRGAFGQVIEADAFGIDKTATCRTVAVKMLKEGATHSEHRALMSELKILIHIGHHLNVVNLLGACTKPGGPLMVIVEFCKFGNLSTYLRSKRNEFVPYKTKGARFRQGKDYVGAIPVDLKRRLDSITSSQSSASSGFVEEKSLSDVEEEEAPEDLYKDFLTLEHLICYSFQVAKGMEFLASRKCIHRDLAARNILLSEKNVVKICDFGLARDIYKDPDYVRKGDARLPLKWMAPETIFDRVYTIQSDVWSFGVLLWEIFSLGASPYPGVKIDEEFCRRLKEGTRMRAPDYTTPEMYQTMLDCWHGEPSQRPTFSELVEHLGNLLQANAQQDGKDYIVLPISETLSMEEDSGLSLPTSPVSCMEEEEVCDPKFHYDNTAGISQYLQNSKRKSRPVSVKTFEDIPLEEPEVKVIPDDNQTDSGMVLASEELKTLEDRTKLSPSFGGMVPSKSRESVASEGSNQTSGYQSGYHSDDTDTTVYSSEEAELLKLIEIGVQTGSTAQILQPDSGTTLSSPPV

In the case of `O=C(Nc1ccc2ncnc(Nc3cccc(Br)c3)c2c1)c1ccc(C(F)(F)F)cc1O` [Compound 21, N-(4-(3-bromophenylamino)quinazolin-6-yl)-2-hydroxy-4-(trifluoromethyl)benzamide], the IC50 [1] is reported as 0.49 ± 0.018 µM, the IC50 [2] is reported as 0.67 ± 0.002 µM and the IC50 [3] is reported as 0.92 ± 0.019 µM. It also gave an IC50 [4] of 0.77 ± 0.034 µM, an IC50 [5] of 29.2 ± 0.98 µM and an IC50 [6] of 11.9 ± 0.78 µM. For the same compound, the IC50 ([7]; ATP concentration = Km) was 3.5 µM, the “pIC50 CDK2” value [7, 11] was 5.46 and the IC50 ([8]; ATP concentration = Km) was 16.1 ± 0.37 µM. The “pIC50 p38α” value [8, 11] was 4.79, the IC50 [9] was 63.7 ± 1.02 µM and the “selectivity against major of other kinases screened” value [10] was “more than 100 fold”.
